# Reference: patent publication US9650616B2, “Methods for increasing grain yield” (University of Florida Research Foundation, Inc., priority 2014, dated 2017)
# Residue numbers refer to the chain shown, from its start.
# Tests used:
# [1] = target: T1, maize endosperm AGPase, large subunit variant GG (Q96G, D161G; numbering of SEQ ID NO: 20) (Zea mays, UniProt P55241+Q84PF5, D161G/Q96G); experiment: Apparent kinetic constants with 3-PGA, 37° C., GG; assay type: biochemical; conditions: read-out: ATP Km
# T1 sequence (P55241 46-516 D161G/Q96G): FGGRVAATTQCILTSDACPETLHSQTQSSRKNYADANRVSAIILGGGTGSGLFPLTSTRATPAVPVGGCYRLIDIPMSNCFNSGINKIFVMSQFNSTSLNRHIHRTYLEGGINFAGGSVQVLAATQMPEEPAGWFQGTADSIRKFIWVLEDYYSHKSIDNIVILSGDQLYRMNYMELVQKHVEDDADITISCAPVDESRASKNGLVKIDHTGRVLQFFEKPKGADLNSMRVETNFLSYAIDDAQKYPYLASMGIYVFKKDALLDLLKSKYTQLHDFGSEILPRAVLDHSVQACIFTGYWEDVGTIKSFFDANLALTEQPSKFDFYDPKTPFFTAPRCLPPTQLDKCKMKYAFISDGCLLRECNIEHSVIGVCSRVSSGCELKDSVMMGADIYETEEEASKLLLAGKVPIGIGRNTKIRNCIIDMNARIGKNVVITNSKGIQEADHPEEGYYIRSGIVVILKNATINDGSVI
# T1 sequence (Q84PF5 1-474): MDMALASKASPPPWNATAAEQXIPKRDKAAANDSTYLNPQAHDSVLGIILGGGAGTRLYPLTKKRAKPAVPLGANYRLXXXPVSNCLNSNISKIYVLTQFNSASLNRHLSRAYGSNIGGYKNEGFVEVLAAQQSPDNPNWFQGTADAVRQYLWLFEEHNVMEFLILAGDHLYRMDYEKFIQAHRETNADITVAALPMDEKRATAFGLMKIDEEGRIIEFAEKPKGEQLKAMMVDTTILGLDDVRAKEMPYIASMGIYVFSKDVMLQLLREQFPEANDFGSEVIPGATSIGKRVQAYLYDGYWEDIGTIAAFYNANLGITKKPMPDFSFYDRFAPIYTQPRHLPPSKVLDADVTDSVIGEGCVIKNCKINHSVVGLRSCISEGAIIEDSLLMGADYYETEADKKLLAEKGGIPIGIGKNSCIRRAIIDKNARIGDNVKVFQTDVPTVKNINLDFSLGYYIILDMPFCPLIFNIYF
# Source text: (§1) The small and large subunit plasmids of maize endosperm AGPase (pMONcBt2 and pMONcSh2, respectively) (Giroux et al., 1996) were expressed in E. coli AC70R1-504 cells (Iglesias et al., 1993) as previously described (Boehlein et al., 2008).
# (§2) An endpoint assay was used to determine the rate of the AGPase reaction by coupling the formation of PPi to a decrease in NADH concentration (Boehlein et al., 2008). […] The Michaelis constants (Km) were obtained by varying one substrate in the presence of saturating concentrations of the second substrate. The activation constants were obtained by varying the activator at fixed levels of both substrates. All reactions were performed at 37° C. and mixes were prewarmed before starting the reaction with enzyme. […] The absorbance at 340 nm was monitored after 30 min and the amount of PPi produced was determined from a standard curve using PPi in complete reaction mixtures lacking AGPase. Blank samples contained complete reaction mixtures without enzyme and the change in absorbance between the blank and the reaction was used to calculate the amount of PPi produced. […]
# (§3) The apparent Michaelis constant and maximum velocity of each reaction was calculated from a V vs. S plots using nonlinear regression analysis and the following equation, v=VmaxS/(Km+S), where v is the measured velocity, Vmax is the maximum velocity, S is the substrate concentration. […]
# [2] = target: T2, maize endosperm AGPase, large subunit variant GGRA (Q96G, D161G, A443R, Q289A; numbering of SEQ ID NO: 20) (Zea mays, UniProt P55241+Q84PF5, A443R/D161G/Q289A/Q96G); experiment: Apparent kinetic constants with 3-PGA, 37° C., GGRA; assay type: biochemical; conditions: read-out: ATP Km
# T2 sequence (P55241 46-516 A443R/D161G/Q289A/Q96G): T1 sequence (P55241 46-516 D161G/Q96G) with Q244A, A398R
# T2 sequence (Q84PF5 1-474): T1 sequence (Q84PF5 1-474)
# Source text: as §1, §2, §3
# [3] = system: maize endosperm AGPase, wild type (Maize-wt); conditions: absence of 3-PGA, cited from earlier work
structure (smiles),measurement,setting,value
Nc1ncnc2c1ncn2[C@@H]1O[C@H](COP(=O)(O)OP(=O)(O)OP(=O)(O)O)[C@@H](O)[C@H]1O [ATP],Km,[1],31 µM
same,Km,[2],57 µM
same,Km,"[3]; apparent Km in the presence of 15 mM G-1-P, read-out: ATP Km (apparent)",4000 µM
same,kcat,[3],35.2 s⁻¹
